Test results taken from patent publication US20240116951A1, “HETEROCYCLIC COMPOUNDS AND USES THEREOF” (Kumquat Biosciences Inc., priority 2022, published 2024).

Tests used:
Type in all cases: binding
KRAS G12D = molecular target: T1, KRAS G12D (Homo sapiens, UniProt P01116, G12D); assay: HTRF assay of K-Ras G12D interaction with SOS1 (PPI-HTRF); details: HTRF, 5 nM KRAS G12D; read-out: PPI-HTRF-5 nM KRAS G12D
T1 construct: made in house; host or cells: E. coli, e.g. BL21 (DE3)
Procedure, shortened: (§1)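 Read-out: HTRF ratio 665/620 nm (ex 337 nm) after ~10 min or longer. Donor anti-GST-Eu(K) on GST-K-Ras and acceptor anti-6His-XL665 on His-hSOS1, in HEPES pH 7.4 buffer with DTT, BSA and Igepal. Duplicate dilution series from 10 μM down to 0.01 μM gave IC50 values.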

KRAS WT = molecular target: T2, KRAS WT (Homo sapiens, UniProt P01116); assay: HTRF assay of wildtype K-Ras interaction with SOS1 (PPI-HTRF); details: HTRF, 5 nM KRAS WT; read-out: PPI-HTRF-5 nM KRAS WT
T2 construct: made in house; host or cells: E. coli, e.g. BL21 (DE3)
Procedure, shortened: as §1

KRAS G12S = molecular target: T3, KRAS G12S (Homo sapiens, UniProt P01116, G12S); assay: HTRF assay of K-Ras G12S interaction with SOS1 (PPI-HTRF); details: 5 nM KRAS G12S, read-out: PPI-HTRF-5 nM KRAS G12S
T3 construct: made in house; host or cells: E. coli, e.g. BL21 (DE3)
Procedure, shortened: as §1

Measured: IC50

T3 sequence (P01116 1-188 isoform P01116-2 G12S): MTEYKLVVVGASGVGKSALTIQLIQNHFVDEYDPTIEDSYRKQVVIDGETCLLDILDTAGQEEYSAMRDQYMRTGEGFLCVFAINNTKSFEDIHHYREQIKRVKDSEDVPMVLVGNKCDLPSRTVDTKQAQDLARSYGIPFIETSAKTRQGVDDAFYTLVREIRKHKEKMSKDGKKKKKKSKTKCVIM
T2 sequence (P01116 1-188 isoform P01116-2): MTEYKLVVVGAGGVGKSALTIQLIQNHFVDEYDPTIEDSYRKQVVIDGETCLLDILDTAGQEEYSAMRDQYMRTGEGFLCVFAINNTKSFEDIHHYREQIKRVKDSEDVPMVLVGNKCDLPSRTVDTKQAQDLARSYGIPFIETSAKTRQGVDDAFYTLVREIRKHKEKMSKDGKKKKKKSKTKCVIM
T1 sequence (P01116 1-188 isoform P01116-2 G12D): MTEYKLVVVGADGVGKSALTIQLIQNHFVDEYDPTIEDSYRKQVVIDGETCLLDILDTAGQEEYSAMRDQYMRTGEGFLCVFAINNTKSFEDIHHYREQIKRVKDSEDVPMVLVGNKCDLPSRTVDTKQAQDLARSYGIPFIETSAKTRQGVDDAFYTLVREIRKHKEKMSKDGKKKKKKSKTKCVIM

C[C@H](Oc1nc(N2CCCC3(CCN3C(=O)[C@@H]3C[C@H]3C#N)C2)c2cc(Cl)c(-c3ccc(F)c4sc(N)c(C#N)c34)c(F)c2n1)[C@@H]1CCCN1C (stereo partly drawn) [Compound 235, 2-amino-4-(6-chloro-4-(1-((1R,2R)-2-cyanocyclopropane-1-carbonyl)-1,6-diazaspiro[3.5]nonan-6-yl)-8-fluoro-2-((S)-1-((S)-1-methylpyrrolidin-2-yl)ethoxy)quinazolin-7-yl)-7-fluorobenzo[b]thiophene-3-carbonitrile]
< 5 µM: all assays above

N#Cc1c(N)sc2c(F)ccc(-c3c(Cl)cc4c(N5CCC6(CCN6C=O)C5)nc(OC[C@@]56CCCN5C[C@H](F)C6)nc4c3F)c12 (stereo partly drawn) [Compound 227, 2-amino-4-(6-chloro-8-fluoro-2-(((2R,7aS)-2-fluorotetrahydro-1H-pyrrolizin-7a(5H)-yl)methoxy)-4-(1-formyl-1,6-diazaspiro[3.4]octan-6-yl)quinazolin-7-yl)-7-fluorobenzo[b]thiophene-3-carbonitrile]
< 5 µM: all assays above

Nc1nc2c(-c3ccc4c(N5CCC6(CCN6)CC5)nc(OC[C@@]56CCCN5C[C@H](F)C6)nc4c3F)ccc(F)c2s1 [Compound 204, 7-fluoro-4-(8-fluoro-2-(((2R,7aS)-2-fluorotetrahydro-1H-pyrrolizin-7a(5H)-yl)methoxy)-4-(1,7-diazaspiro[3.5]nonan-7-yl)quinazolin-7-yl)benzo[d]thiazol-2-amine]
< 5 µM: all assays above

N#CCC1CN(c2nc(OC[C@@]34CCCN3C[C@H](F)C4)nc3c(F)c(-c4ccc(F)c5sc(N)c(C#N)c45)c(Cl)cc23)CC12CCN2C(=O)n1cnc(C(F)F)n1 (stereo partly drawn) [Compound 329, 2-amino-4-(6-chloro-4-(8-(cyanomethyl)-1-(3-(difluoromethyl)-1H-1,2,4-triazole-1-carbonyl)-1,6-diazaspiro[3.4]octan-6-yl)-8-fluoro-2-(((2R,7aS)-2-fluorotetrahydro-1H-pyrrolizin-7a(5H)-yl)methoxy)quinazolin-7-yl)-7-fluorobenzo[b]thiophene-3-carbonitrile]
< 5 µM: all assays above

C[C@H]1CN(C(=O)n2cnc(Br)n2)[C@]12CCN(c1nc(OC[C@@]34CCCN3C[C@H](F)C4)nc3c(F)c(-c4ccc(F)c5sc(N)c(C#N)c45)c(Cl)cc13)C2 [Compound 224, 2-amino-4-(4-((3S,4R)-1-(3-bromo-1H-1,2,4-triazole-1-carbonyl)-3-methyl-1,6-diazaspiro[3.4]octan-6-yl)-6-chloro-8-fluoro-2-(((2R,7aS)-2-fluorotetrahydro-1H-pyrrolizin-7a(5H)-yl)methoxy)quinazolin-7-yl)-7-fluorobenzo[b]thiophene-3-carbonitrile]
< 5 µM: all assays above

N#CCC1CN(c2nc(OC[C@@]34CCCN3C[C@H](F)C4)nc3c(F)c(-c4ccc(F)c5sc(N)c(C#N)c45)c(Cl)cc23)CC12CCN2C(=O)n1cnc(Cl)n1 (stereo partly drawn) [Compound 328, 2-amino-4-(6-chloro-4-(1-(3-chloro-1H-1,2,4-triazole-1-carbonyl)-8-(cyanomethyl)-1,6-diazaspiro[3.4]octan-6-yl)-8-fluoro-2-(((2R,7aS)-2-fluorotetrahydro-1H-pyrrolizin-7a(5H)-yl)methoxy)quinazolin-7-yl)-7-fluorobenzo[b]thiophene-3-carbonitrile]
< 5 µM: all assays above

N#Cc1c(N)sc2c(F)ccc(-c3c(Cl)cc4c(N5CCC6(CCN6C(=O)n6cnc(C7CC7)n6)C5)nc(OC[C@@]56CCCN5C[C@H](F)C6)nc4c3F)c12 (stereo partly drawn) [Compound 308, 2-amino-4-(6-chloro-4-(1-(3-cyclopropyl-1H-1,2,4-triazole-1-carbonyl)-1,6-diazaspiro[3.4]octan-6-yl)-8-fluoro-2-(((2R,7aS)-2-fluorotetrahydro-1H-pyrrolizin-7a(5H)-yl)methoxy)quinazolin-7-yl)-7-fluorobenzo[b]thiophene-3-carbonitrile]
< 5 µM: all assays above

N#Cc1c(N)sc2c(F)ccc(-c3c(Cl)cc4c(N5CCC6(CCCN6C(=O)C6CC6(F)F)C5)nc(OC[C@@]56CCCN5C[C@H](F)C6)nc4c3F)c12 (stereo partly drawn) [Compound 217, 2-amino-4-(6-chloro-4-(1-(2,2-difluorocyclopropane-1-carbonyl)-1,7-diazaspiro[4.4]nonan-7-yl)-8-fluoro-2-(((2R,7aS)-2-fluorotetrahydro-1H-pyrrolizin-7a(5H)-yl)methoxy)quinazolin-7-yl)-7-fluorobenzo[b]thiophene-3-carbonitrile]
< 5 µM: all assays above

N#Cc1c(N)sc2c(F)ccc(-c3c(Cl)cc4c(N5CCC6(CCN6)C5)nc(OC[C@@]56CCCN5C[C@H](F)C6)nc4c3F)c12 (stereo partly drawn) [Compound 212, 2-amino-4-(6-chloro-8-fluoro-2-(((2R,7aS)-2-fluorotetrahydro-1H-pyrrolizin-7a(5H)-yl)methoxy)-4-(1,6-diazaspiro[3.4]octan-6-yl)quinazolin-7-yl)-7-fluorobenzo[b]thiophene-3-carbonitrile]
< 5 µM: all assays above

N#Cc1c(N)sc2c(F)ccc(-c3c(Cl)cc4c(N5CCC6(CCN6C(=O)C(F)Cl)C5)nc(OC[C@@]56CCCN5C[C@H](F)C6)nc4c3F)c12 (stereo partly drawn) [Compound 244, 2-amino-4-(6-chloro-4-(1-(2-chloro-2-fluoroacetyl)-1,6-diazaspiro[3.4]octan-6-yl)-8-fluoro-2-(((2R,7aS)-2-fluorotetrahydro-1H-pyrrolizin-7a(5H)-yl)methoxy)quinazolin-7-yl)-7-fluorobenzo[b]thiophene-3-carbonitrile]
< 5 µM: all assays above

C[C@H](Oc1nc(N2CC[C@@]3(CCN3C(=O)C3CC3(F)F)C2)c2cc(Cl)c(-c3ccc(F)c4sc(N)c(C#N)c34)c(F)c2n1)[C@@H]1CCCN1C (stereo partly drawn) [Compound 346, (4S)-2-amino-4-(6-chloro-4-((4R)-1-(2,2-difluorocyclopropane-1-carbonyl)-1,6-diazaspiro[3.4]octan-6-yl)-8-fluoro-2-((S)-1-((S)-1-methylpyrrolidin-2-yl)ethoxy)quinazolin-7-yl)-7-fluorobenzo[b]thiophene-3-carbonitrile]
< 5 µM: all assays above

C=CC(=O)N1CC[C@@]12CCN(c1nc(OC[C@@]34CCCN3C[C@H](F)C4)nc3c(F)c(-c4ccc(F)c5sc(N)c(C#N)c45)c(Cl)cc13)C2 [Compound 291]
< 5 µM: all assays above

N#Cc1ncn(C(=O)N2CC[C@@]23CCN(c2nc(OC[C@@]45CCCN4C[C@H](F)C5)nc4c(F)c(-c5ccc(F)c6sc(N)c(C#N)c56)c(Cl)cc24)C3)n1 [Compound 321, 1-((4R)-6-(7-(2-amino-3-cyano-7-fluorobenzo[b]thiophen-4-yl)-6-chloro-8-fluoro-2-(((2R,7aS)-2-fluorotetrahydro-1H-pyrrolizin-7a(5H)-yl)methoxy)quinazolin-4-yl)-1,6-diazaspiro[3.4]octane-1-carbonyl)-1H-1,2,4-triazole-3-carbonitrile]
< 5 µM: all assays above
